Experimental data as given in US9630963B2, “Quinolone derivatives as fibroblast growth factor inhibitors” (Principia Biopharma, Inc., priority 2013, dated 2017).

How the values were obtained:
human recombinant FGFR1 = human recombinant FGFR1 (Homo sapiens, UniProt P11362); assay: FGFR family enzymatic activity assay (Caliper-based kinase assay), FGFR1; format: biochemical; details: FGFR1 0.5 nM, ATP 100 μM, peptide substrate 1 μM, room temperature 3 h
Description: (§1) A Caliper-based kinase assay (Caliper Life Sciences, Hopkinton, Mass.) was used to measure inhibition of FGFR family (FGFR1, FGFR2, FGFR3, FGFR4) kinase activity of a compound of Formula (I′) or (I). […] This value is presented as the IC50.

human recombinant FGFR2 = human recombinant FGFR2 (Homo sapiens, UniProt P21802); assay: FGFR family enzymatic activity assay (Caliper-based kinase assay), FGFR2; format: biochemical; details: FGFR2 0.1 nM, ATP 75 μM, peptide substrate 1 μM, room temperature 3 h
Chain of human recombinant FGFR2 (P21802 22-821): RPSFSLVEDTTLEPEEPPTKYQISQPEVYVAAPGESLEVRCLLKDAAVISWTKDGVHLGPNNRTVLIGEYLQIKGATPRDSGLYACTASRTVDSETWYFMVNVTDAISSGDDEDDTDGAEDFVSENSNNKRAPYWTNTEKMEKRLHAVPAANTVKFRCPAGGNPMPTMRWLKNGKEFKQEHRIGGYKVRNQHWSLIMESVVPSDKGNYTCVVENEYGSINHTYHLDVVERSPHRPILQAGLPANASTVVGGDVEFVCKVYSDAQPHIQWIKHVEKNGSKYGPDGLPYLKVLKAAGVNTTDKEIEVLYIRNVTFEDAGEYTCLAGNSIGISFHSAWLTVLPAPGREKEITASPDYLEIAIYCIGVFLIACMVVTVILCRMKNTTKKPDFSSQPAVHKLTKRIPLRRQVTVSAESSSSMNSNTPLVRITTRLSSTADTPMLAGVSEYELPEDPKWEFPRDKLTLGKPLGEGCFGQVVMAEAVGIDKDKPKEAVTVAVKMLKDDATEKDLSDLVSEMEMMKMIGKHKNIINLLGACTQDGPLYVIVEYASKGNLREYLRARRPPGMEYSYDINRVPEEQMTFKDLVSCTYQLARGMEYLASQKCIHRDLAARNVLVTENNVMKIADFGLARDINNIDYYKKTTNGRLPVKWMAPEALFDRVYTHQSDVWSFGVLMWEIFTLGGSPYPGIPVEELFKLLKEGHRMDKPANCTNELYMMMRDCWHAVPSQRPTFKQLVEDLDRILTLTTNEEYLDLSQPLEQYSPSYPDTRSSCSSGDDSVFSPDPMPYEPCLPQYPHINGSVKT
Description: as §1

human recombinant FGFR3 = human recombinant FGFR3 (Homo sapiens, UniProt P22607); assay: FGFR family enzymatic activity assay (Caliper-based kinase assay), FGFR3; format: biochemical; details: FGFR3 0.9 nM, ATP 120 μM, peptide substrate 1 μM, room temperature 3 h
Chain of human recombinant FGFR3 (P22607 23-806): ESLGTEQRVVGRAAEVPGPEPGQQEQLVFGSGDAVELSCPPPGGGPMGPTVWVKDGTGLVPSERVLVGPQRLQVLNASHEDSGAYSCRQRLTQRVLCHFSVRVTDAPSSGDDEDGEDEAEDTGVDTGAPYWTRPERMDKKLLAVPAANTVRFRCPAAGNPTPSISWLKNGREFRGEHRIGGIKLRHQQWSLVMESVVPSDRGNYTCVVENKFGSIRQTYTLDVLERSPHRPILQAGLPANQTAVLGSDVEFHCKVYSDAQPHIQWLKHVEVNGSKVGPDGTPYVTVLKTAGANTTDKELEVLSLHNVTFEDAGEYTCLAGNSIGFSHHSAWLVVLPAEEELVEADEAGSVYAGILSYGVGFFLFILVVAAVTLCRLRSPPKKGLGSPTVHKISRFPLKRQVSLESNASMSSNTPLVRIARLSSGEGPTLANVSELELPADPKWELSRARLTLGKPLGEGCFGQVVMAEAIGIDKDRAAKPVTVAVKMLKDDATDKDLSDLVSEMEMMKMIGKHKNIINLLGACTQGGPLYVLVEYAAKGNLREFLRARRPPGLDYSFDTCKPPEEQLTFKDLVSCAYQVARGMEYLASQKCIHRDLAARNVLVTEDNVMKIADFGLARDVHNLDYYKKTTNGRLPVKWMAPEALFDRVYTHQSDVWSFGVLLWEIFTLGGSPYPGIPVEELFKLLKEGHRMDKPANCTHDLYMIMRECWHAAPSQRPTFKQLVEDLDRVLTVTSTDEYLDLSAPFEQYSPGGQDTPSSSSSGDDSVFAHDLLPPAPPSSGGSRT
Description: as §1

human recombinant FGFR4 = human recombinant FGFR4 (Homo sapiens, UniProt P22455); assay: FGFR family enzymatic activity assay (Caliper-based kinase assay), FGFR4; format: biochemical; details: FGFR4 2 nM, ATP 250 μM, peptide substrate 1 μM, room temperature 3 h
Chain of human recombinant FGFR4 (P22455 22-802): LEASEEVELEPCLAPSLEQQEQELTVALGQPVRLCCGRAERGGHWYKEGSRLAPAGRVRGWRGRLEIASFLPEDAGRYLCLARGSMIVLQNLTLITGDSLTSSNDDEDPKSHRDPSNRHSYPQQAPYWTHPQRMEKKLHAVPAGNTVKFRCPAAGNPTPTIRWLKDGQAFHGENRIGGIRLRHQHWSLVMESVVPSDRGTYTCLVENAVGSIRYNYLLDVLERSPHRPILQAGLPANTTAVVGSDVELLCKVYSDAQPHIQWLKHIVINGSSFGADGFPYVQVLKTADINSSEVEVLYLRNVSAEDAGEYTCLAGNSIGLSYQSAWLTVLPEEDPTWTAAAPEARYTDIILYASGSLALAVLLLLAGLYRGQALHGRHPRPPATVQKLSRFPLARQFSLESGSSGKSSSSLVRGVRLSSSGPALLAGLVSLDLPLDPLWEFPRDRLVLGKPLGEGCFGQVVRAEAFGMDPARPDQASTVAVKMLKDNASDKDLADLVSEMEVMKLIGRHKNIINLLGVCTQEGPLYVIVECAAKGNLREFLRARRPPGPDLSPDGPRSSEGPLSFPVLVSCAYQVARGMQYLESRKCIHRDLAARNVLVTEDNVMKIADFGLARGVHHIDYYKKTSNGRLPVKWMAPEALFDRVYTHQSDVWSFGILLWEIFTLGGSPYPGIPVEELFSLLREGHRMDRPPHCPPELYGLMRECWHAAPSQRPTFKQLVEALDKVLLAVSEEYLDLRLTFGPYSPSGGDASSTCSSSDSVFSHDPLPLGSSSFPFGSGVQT
Description: as §1

SNU-16 cells = assay: Inhibition of FGFR2-dependent cell growth (Cell-titer Glo); format: cell-based; details: Homo sapiens, SNU16 cells, 72 hrs incubation, cell viability by Cell-titer Glo
Procedure: The cell-based effects of FGFR inhibitors were determined by measuring inhibition of FGFR-dependent cell line growth. […] Percent inhibition of cell growth was calculated as a percentage of untreated cell viability. The percent inhibition was plotted as a function of log compound concentration. The IC50 was then calculated for each compound using Prism software from GraphPad.

Chain of human recombinant FGFR1 (P11362 22-822): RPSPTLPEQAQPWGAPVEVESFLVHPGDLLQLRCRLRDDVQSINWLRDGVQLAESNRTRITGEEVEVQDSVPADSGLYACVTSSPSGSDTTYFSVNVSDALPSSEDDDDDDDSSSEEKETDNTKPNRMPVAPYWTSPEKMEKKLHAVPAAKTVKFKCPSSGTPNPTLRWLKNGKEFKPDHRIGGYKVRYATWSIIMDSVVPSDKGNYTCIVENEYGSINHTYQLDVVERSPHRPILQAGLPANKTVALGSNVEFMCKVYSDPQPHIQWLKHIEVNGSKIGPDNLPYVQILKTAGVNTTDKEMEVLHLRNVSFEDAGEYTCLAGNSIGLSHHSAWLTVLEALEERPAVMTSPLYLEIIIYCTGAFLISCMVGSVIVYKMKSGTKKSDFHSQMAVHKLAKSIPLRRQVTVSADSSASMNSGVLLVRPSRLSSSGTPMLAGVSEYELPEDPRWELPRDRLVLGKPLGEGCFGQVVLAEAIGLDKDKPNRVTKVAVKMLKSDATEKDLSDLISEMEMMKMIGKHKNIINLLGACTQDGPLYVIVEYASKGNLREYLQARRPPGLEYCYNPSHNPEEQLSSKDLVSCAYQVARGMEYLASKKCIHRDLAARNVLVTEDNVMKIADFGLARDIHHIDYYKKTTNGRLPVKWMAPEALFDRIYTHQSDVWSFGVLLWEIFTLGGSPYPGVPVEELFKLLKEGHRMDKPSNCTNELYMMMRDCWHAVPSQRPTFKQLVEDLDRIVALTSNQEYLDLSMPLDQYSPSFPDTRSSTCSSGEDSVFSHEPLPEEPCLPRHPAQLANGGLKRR

| Structure (SMILES) | IC50 (human recombinant FGFR1) | IC50 (human recombinant FGFR2) | IC50 (human recombinant FGFR3) | IC50 (human recombinant FGFR4) | IC50 (SNU-16 cells) |
| --- | --- | --- | --- | --- | --- |
| C=CC(=O)Nc1ccc(CCn2c(=O)c(-c3cc(OC)cc(OC)c3Cl)cc3cnc(NC)nc32)cc1 [Example 13, N-(4-(2-(6-(2-chloro-3,5-dimethoxyphenyl)-2-(methylamino)-7-oxopyrido[2,3-d]pyrimidin-8(7H)-yl)ethyl)phenyl)acrylamide] |  | 1.4 nM | 2.3 nM | 25.6 nM |  |
| C=CC(=O)Nc1ccc(CCn2c(=O)c(-c3cc(OC)cc(OC)c3Cl)cc3cnc(NCCO)nc32)cc1 [Example 69, N-(4-(2-(6-(2-chloro-3,5-dimethoxyphenyl)-2-((2-hydroxyethyl)amino)-7-oxopyrido[2,3-d]pyrimidin-8(7H)-yl)ethyl)phenyl)acrylamide] |  | 2 nM | 6 nM | 42.4 nM |  |
| C=CC(=O)Nc1ccc(CCn2c(=O)c(-c3cc(OC)cc(OC)c3Cl)cc3cnc(NC(CO)CO)nc32)cc1 [Example 72, N-(4-(2-(6-(2-chloro-3,5-dimethoxyphenyl)-2-((1,3-dihydroxypropan-2-yl)amino)-7-oxopyrido[2,3-d]pyrimidin-8(7H)-yl)ethyl)phenyl)acrylamide] |  | 1.5 nM | 6.8 nM | 43.3 nM |  |
| C=CC(=O)Nc1ccc(CCn2c(=O)c(-c3c(Cl)c(OC)cc(OC)c3Cl)cc3cnc(NCC(O)CO)nc32)nc1 (stereo not drawn) [Example 88, N-(6-(2-(6-(2,6-dichloro-3,5-dimethoxyphenyl)-2-((2,3-dihydroxypropyl)amino)-7-oxopyrido[2,3-d]pyrimidin-8(7H)-yl)ethyl)pyridin-3-yl)acrylamide] | 0.6 nM |  |  |  | 24.6 nM |
| C=CC(=O)Nc1ccc(CCn2c(=O)c(-c3c(Cl)c(OC)cc(OC)c3Cl)cc3cnc(NCC4CC4)nc32)cc1 [Example 90, N-(4-(2-(2-((cyclopropylmethyl)amino)-6-(2,6-dichloro-3,5-dimethoxyphenyl)-7-oxopyrido[2,3-d]pyrimidin-8(7H)-yl)ethyl)phenyl)acrylamide] | 1.8 nM |  |  |  | 4.6 nM |
| C=CC(=O)Nc1ccc(CCn2c(=O)c(-c3c(Cl)c(OC)cc(OC)c3Cl)cc3cnc(NC(CC)(CO)CO)nc32)cc1 [Example 92, N-(4-(2-(6-(2,6-dichloro-3,5-dimethoxyphenyl)-2-((1-hydroxy-2-(hydroxymethyl)-butan-2-yl)amino)-7-oxopyrido[2,3-d]pyrimidin-8(7H)-yl)ethyl)phenyl)acrylamide] | 1.1 nM |  |  |  | 6.3 nM |
| C=CC(=O)Nc1ccc(CCn2c(=O)c(-c3c(Cl)c(OC)cc(OC)c3Cl)cc3cnc(NCC(C)(C)CO)nc32)cc1 [Example 93, N-(4-(2-(6-(2,6-dichloro-3,5-dimethoxyphenyl)-2-((3-hydroxy-2,2-dimethylpropyl)-amino)-7-oxopyrido[2,3-d]pyrimidin-8(7H)-yl)ethyl)phenyl)acrylamide] | 0.7 nM |  |  |  | 1.5 nM |
| C=CC(=O)Nc1ccc(CCn2c(=O)c(-c3c(Cl)c(OC)cc(OC)c3Cl)cc3cnc(NCC(C)(C)CO)nc32)nc1 [Example 97, N-(6-(2-(6-(2,6-dichloro-3,5-dimethoxyphenyl)-2-((3-hydroxy-2,2-dimethylpropyl)-amino)-7-oxopyrido[2,3-d]pyrimidin-8(7H)-yl)ethyl)pyridin-3-yl)acrylamide] | 1.5 nM |  |  |  | 6.4 nM |
| C=CC(=O)Nc1cccc(Cn2c(=O)c(-c3cc(OC)cc(OC)c3Cl)cc3cnc(NCCN4CCOCC4)nc32)c1 [Example 102, N-(3-((6-(2-chloro-3,5-dimethoxyphenyl)-2-((2-morpholinoethyl)amino)-7-oxopyrido[2,3-d]pyrimidin-8(7H)-yl)methyl)phenyl)acrylamide] | 1 nM |  |  |  | 3.9 nM |
| C=CC(=O)Nc1ccc(CCn2c(=O)c(-c3cc(OC)cc(OC)c3Cl)cc3cnc(NCCO)nc32)nc1 [Example 104, N-(6-(2-(6-(2-chloro-3,5-dimethoxyphenyl)-2-((2-hydroxyethyl)amino)-7-oxopyrido[2,3-d]pyrimidin-8(7H)-yl)ethyl)pyridin-3-yl)acrylamide] | 0.8 nM |  |  |  | 13.4 nM |
| C=CC(=O)Nc1ccc(CCn2c(=O)c(-c3cc(OC)cc(OC)c3Cl)cc3cnc(NCC(C)(C)O)nc32)nc1 [Example 109, N-(6-(2-(6-(2-chloro-3,5-dimethoxyphenyl)-2-((2-hydroxy-2-methylpropyl)amino)-7-oxopyrido[2,3-d]pyrimidin-8(7H)-yl)ethyl)pyridin-3-yl)acrylamide] | 1.6 nM |  |  |  | 3.5 nM |

The next lines start with the values.

| IC50 (human recombinant FGFR1) | IC50 (human recombinant FGFR2) | IC50 (human recombinant FGFR3) | IC50 (human recombinant FGFR4) | IC50 (SNU-16 cells) | Structure (SMILES) |
| --- | --- | --- | --- | --- | --- |
| 840 nM | 701 nM | 1040 nM | > 5000 nM |  | C=CC(=O)N1CCCC(CCn2c(=O)c(-c3ccccc3Cl)cc3cnc(NCCCCN(CC)CC)nc32)C1 (stereo not drawn) [Example 2, 8-(2-(1-acryloylpiperidin-3-yl)ethyl)-6-(2-chlorophenyl)-2-(4-(diethylamino)-butylamino)pyrido[2,3-d]pyrimidin-7(8H)-one] |
| 31.2 nM |  | 19 nM |  | 83 nM | C=CC(=O)Nc1cccc(CCn2c(=O)c(-c3cc(OC)cc(OC)c3)cc3cnc(NC)nc32)c1 [Example 8, N-(3-(2-(6-(3,5-dimethoxyphenyl)-2-(methylamino)-7-oxopyrido[2,3-d]pyrimidin-8(7H)-yl)ethyl)phenyl)acrylamide] |
|  | 1.7 nM | 2.3 nM | 6.9 nM |  | C=CC(=O)Nc1ccc(CCn2c(=O)c(-c3cc(OC)cc(OC)c3Cl)cc3cnc(NC)nc32)cn1 [Example 16, N-(5-(2-(6-(2-chloro-3,5-dimethoxyphenyl)-2-(methylamino)-7-oxopyrido[2,3-d]pyrimidin-8(7H)-yl)ethyl)pyridin-2-yl)acrylamide] |
|  | 2 nM | 6.3 nM | 41 nM |  | C=CC(=O)Nc1ccc(CCn2c(=O)c(-c3cc(OC)cc(OC)c3Cl)cc3cnc(NCCN4CCN(C(C)=O)CC4)nc32)cc1 [Example 66, N-(4-(2-(2-((2-(4-acetylpiperazin-1-yl)ethyl)amino)-6-(2-chloro-3,5-dimethoxy-phenyl)-7-oxopyrido[2,3-d]pyrimidin-8(7H)-yl)ethyl)phenyl)acrylamide] |
| 0.2 nM |  |  |  | 4.8 nM | C=CC(=O)Nc1ccc(CCn2c(=O)c(-c3c(Cl)c(OC)cc(OC)c3Cl)cc3cnc(NC4CCOCC4)nc32)cc1 [Example 89, N-(4-(2-(6-(2,6-dichloro-3,5-dimethoxyphenyl)-7-oxo-2-((tetrahydro-2H-pyran-4-yl)amino)pyrido[2,3-d]pyrimidin-8(7H)-yl)ethyl)phenyl)acrylamide] |
| 0.6 nM |  |  |  | 2.9 nM | C=CC(=O)Nc1ccc(CCn2c(=O)c(-c3c(Cl)c(OC)cc(OC)c3Cl)cc3cnc(NC(C)(CO)CO)nc32)cc1 [Example 91, N-(4-(2-(6-(2,6-dichloro-3,5-dimethoxyphenyl)-2-((1,3-dihydroxy-2-methylpropan-2-yl)amino)-7-oxopyrido[2,3-d]pyrimidin-8(7H)-yl)ethyl)phenyl)acrylamide] |
| 2.1 nM |  |  |  | 7.4 nM | C=CC(=O)Nc1ccc(CCn2c(=O)c(-c3c(Cl)c(OC)cc(OC)c3Cl)cc3cnc(NC(C)(C)CO)nc32)nc1 [Example 94, N-(6-(2-(6-(2,6-dichloro-3,5-dimethoxyphenyl)-2-((1-hydroxy-2-methylpropan-2-yl)amino)-7-oxopyrido[2,3-d]pyrimidin-8(7H)-yl)ethyl)pyridin-3-yl)acrylamide] |
| 0.3 nM |  |  |  | 16.4 nM | C=CC(=O)Nc1ccc(CCn2c(=O)c(-c3c(Cl)c(OC)cc(OC)c3Cl)cc3cnc(NCC4(O)CCN(C)CC4)nc32)cc1 [Example 98, N-(4-(2-(6-(2,6-dichloro-3,5-dimethoxyphenyl)-2-(((4-hydroxy-1-methylpiperidin-4-yl)methyl)-amino)-7-oxopyrido[2,3-d]pyrimidin-8(7H)-yl)ethyl)phenyl)acrylamide] |
| 1.2 nM |  |  |  | 2.6 nM | C=CC(=O)Nc1ccc(CCn2c(=O)c(-c3c(Cl)c(OC)cc(OC)c3Cl)cc3cnc(NC(C)(CO)CO)nc32)nc1 [Example 99, N-(6-(2-(6-(2,6-dichloro-3,5-dimethoxyphenyl)-2-((1,3-dihydroxy-2-methylpropan-2-yl)-amino)-7-oxopyrido[2,3-d]pyrimidin-8(7H)-yl)ethyl)pyridin-3-yl)acrylamide] |
| 0.3 nM |  |  |  | 1.6 nM | C#CCNc1ncc2cc(-c3c(Cl)c(OC)cc(OC)c3Cl)c(=O)n(CCc3ccc(NC(=O)C=C)cn3)c2n1 [Example 101, N-(6-(2-(6-(2,6-dichloro-3,5-dimethoxyphenyl)-7-oxo-2-(prop-2-yn-1-ylamino)-pyrido[2,3-d]pyrimidin-8(7H)-yl)ethyl)pyridin-3-yl)acrylamide] |
| 0.6 nM |  |  |  | 3.6 nM | C=CC(=O)Nc1ccc(CCn2c(=O)c(-c3cc(OC)cc(OC)c3Cl)cc3cnc(NCC4CC4)nc32)nc1 [Example 103, N-(6-(2-(6-(2-chloro-3,5-dimethoxyphenyl)-2-((cyclopropylmethyl)amino)-7-oxopyrido[2,3-d]pyrimidin-8(7H)-yl)ethyl)pyridin-3-yl)acrylamide] |
| 1.2 nM |  |  |  | 7.8 nM | C=CC(=O)Nc1ccc(CCn2c(=O)c(-c3c(Cl)c(OC)cc(OC)c3Cl)cc3cnc(NN4CCN(C)CC4)nc32)cc1 [Example 105, N-(4-(2-(6-(2,6-dichloro-3,5-dimethoxyphenyl)-2-((4-methylpiperazin-1-yl)amino)-7-oxopyrido[2,3-d]pyrimidin-8(7H)-yl)ethyl)phenyl)acrylamide] |
